Assay results taken from paper doi:10.1101/2024.08.29.610163v8, “Structural Snapshots of B12-Dependent Methionine Synthase’s Catalytic Conformations” (biorxiv, 2026).
Residue numbers refer to the chain shown, from its start.

Assays:
tMS^HcyFolCapCob [1] = molecular target: T1, tMS^HcyFolCapCob (Thermus thermophilus, UniProt Q5SKM5, F110A/E123A/E124A/R268A/D651A/P652A/G653A/D759A/N774H/R826A); assay: X-ray crystal structure, […] Å; format: binding; conditions: Hcy-on; aeCbl holoenzyme; co-purified; Fol domain; mutant 2
T1 construct: gene TTHA0618; Hcy-Fol-Cap-Cob tetradomain, lacks Act domain; N-terminal His6 tag cut with TEV; about 95 kDa monomer; E. coli BL21star(DE3)
T1 sequence (Q5SKM5 1-877 F110A/E123A/E124A/R268A/D651A/P652A/G653A/D759A/N774H/R826A): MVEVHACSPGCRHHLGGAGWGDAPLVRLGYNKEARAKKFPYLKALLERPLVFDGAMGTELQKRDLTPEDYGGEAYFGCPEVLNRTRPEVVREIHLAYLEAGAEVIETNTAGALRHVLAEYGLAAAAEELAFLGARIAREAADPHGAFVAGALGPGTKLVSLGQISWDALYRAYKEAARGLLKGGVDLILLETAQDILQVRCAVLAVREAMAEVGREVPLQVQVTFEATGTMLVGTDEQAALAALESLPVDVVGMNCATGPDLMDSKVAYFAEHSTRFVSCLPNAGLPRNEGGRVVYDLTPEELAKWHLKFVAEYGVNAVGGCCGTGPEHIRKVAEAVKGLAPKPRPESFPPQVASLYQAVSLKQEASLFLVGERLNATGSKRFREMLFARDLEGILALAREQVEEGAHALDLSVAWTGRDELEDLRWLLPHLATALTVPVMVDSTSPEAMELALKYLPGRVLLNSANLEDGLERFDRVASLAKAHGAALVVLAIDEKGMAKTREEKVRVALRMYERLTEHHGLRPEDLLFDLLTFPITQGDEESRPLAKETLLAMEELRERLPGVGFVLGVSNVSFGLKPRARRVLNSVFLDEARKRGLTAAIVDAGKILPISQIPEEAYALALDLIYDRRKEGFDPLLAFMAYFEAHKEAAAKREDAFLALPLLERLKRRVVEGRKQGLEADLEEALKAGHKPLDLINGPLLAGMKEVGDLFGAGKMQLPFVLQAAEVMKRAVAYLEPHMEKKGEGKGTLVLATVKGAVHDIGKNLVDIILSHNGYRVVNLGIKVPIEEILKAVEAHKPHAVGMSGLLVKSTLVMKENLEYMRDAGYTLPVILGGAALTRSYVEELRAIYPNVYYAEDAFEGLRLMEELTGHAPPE

tMS^HcyFolCapCob [2] = molecular target: T2, tMS^HcyFolCapCob (Thermus thermophilus, UniProt Q5SKM5, F110A/E123A/E124A/Y296A/D651A/P652A/G653A); assay: X-ray crystal structure, […] Å; format: binding; conditions: pre-Hcy-on, prCbl holoenzyme, mutant 1
T2 construct: gene TTHA0618; Hcy-Fol-Cap-Cob tetradomain, lacks Act domain; N-terminal His6 tag cut with TEV; about 95 kDa monomer; E. coli BL21star(DE3)
T2 sequence (Q5SKM5 1-877 F110A/E123A/E124A/Y296A/D651A/P652A/G653A): T1 sequence (Q5SKM5 1-877 F110A/E123A/E124A/R268A/D651A/P652A/G653A/D759A/N774H/R826A) with A268R, Y296A, A759D, H774N, A826R

tMS^ΔN35Hcy (tMS^Hcy) = molecular target: T3, tMS^ΔN35Hcy (tMS^Hcy) (Thermus thermophilus, UniProt Q5SKM5); assay: UV-Vis methylcobalamin consumption; format: biochemical; conditions: 100 µM homocysteine; 20 µM free MeCbl; 2 µM enzyme; pH 7.4, 0.5 mM TCEP, 50 °C
T3 construct: gene TTHA0618; isolated Hcy domain lacking N-terminal 35 residues; N-terminal His6-TEV tag, no cut described; E. coli BL21star(DE3)
T3 sequence (Q5SKM5 36-340 limits assumed): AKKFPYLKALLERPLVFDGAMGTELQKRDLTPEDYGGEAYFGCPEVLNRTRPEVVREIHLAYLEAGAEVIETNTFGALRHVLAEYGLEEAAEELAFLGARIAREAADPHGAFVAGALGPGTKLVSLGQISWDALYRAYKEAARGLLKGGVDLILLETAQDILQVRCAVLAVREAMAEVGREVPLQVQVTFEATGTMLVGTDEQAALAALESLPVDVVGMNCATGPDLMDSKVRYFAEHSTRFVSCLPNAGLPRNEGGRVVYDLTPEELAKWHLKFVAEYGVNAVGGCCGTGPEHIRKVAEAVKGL

tMS^HcyFol = molecular target: T4, tMS^HcyFol (Thermus thermophilus, UniProt Q5SKM5); assay: UV-Vis methylcobalamin consumption; format: biochemical; conditions: 100 µM homocysteine; 23 µM CapCob-bound MeCbl or 20 µM free MeCbl; 2 µM enzyme; pH 7.4, 0.5 mM TCEP, 50 °C
T4 construct: gene TTHA0618; Hcy-Fol didomain; N-terminal His6-TEV tag, no cut described; E. coli BL21star(DE3)
T4 sequence (Q5SKM5 1-640 limits assumed): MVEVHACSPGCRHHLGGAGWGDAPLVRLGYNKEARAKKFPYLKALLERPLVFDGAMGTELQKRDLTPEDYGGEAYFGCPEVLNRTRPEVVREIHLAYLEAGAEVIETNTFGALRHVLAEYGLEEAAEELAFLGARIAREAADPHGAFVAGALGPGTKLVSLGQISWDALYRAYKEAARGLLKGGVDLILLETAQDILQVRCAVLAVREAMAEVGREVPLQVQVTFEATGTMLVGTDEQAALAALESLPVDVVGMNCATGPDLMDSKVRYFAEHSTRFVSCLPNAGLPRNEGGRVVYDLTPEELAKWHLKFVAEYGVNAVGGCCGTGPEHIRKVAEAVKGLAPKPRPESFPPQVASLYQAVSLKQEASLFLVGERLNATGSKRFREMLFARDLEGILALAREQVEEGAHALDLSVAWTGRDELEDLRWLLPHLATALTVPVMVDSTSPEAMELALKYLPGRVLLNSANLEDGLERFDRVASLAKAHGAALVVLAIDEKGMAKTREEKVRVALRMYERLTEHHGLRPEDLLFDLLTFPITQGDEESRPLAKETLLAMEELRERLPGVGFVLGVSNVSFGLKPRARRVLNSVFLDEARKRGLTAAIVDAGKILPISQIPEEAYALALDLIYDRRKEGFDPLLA

## Nc1nc2c(c(=O)[nH]1)N[C@@H](CNc1ccc(C(=O)N[C@@H](CCC(=O)O)C(=O)O)cc1)CN2 [tetrahydrofolate]
tMS^HcyFolCapCob [1]
  X-ray crystal structure, 2.38 Å: pre-Hcy-on (Cap-on, 9CBP) and Hcy-on (9CBR) states copurified with the folate demethylation byproduct
tMS^HcyFolCapCob [2]; co-purified, Fol domain
  X-ray crystal structure, 2.45 Å: tetradomain did yield a folate-bound structure, modelled as tetrahydrofolate (Ligand ID THG)

## N[C@@H](CCS)C(=O)O [homocysteine]
tMS^ΔN35Hcy (tMS^Hcy)
  UV-Vis methylcobalamin consumption: Consumption of exogenous methylcobalamin was detected in the presence of both tMS ^HcyFol and tMS^Hcy
tMS^HcyFol
  UV-Vis methylcobalamin consumption: consumption of methylcobalamin when bound to tMS^CapCob was observed with tMS^HcyFol
tMS^HcyFolCapCob [2]; Hcy domain site
  X-ray crystal structure, 2.45 Å: HCY was found bound in the pre-Hcy-on structure (9CBP)
